Assays:
[1] = system: Human lung cancer sections; assay: Patient-derived ex-vivo tumor explant culture on tumor microenvironment platform; H&E and IHC for cleaved caspase 3, MICA/B and CD56; type: cell-based; settings: cultured 72 hours in tumor microenvironment platform, IHC, FIG. 1
Procedure: The relevance of changes in the immune contexture of the tumor tissue culture microbed for a non-immunmodulatory agent, either as monotherapy or in combination with an immunomodulatory agent, was examined. Human lung cancer sections from the same patient cultured for 72 hours in the tumor microenvironment platform with gefitinib (a small molecule kinase inhibitor) alone, osimertinib (another small molecule kinase inhibitor)+Pembrolizumab, or vehicle control were assayed for H&E staining and cleaved caspase 3, MICA/B (cell surface ligands that bind immunoreceptors present on natural killer (NK) cells), and CD56 (marker of NK cells) expression.

[2] = system: gastrointestinal stromal tumor; assay: M-score (sensitivity index) from tumor-associated marker assays on tumor tissue culture; type: cell-based, human; settings: Patient 1, gastrointestinal stromal tumor
Procedure: The tumor tissue cultures were also evaluated using standard assays for tumor proliferation, tumor cell death, tumor morphology, and tumor cell viability as previously described, including tetrazolium salt WST-1 viability assay; LDH release; ATP uptake; glucose uptake; Caspase 3, Caspase 8, and Ki67 expression; and H&E staining. The results of the assays for tumor-associated markers were used to generate assessment scores that were input into a machine-trained algorithm to generate a clinical outcome predictor in the form of an “M-score” for each patient.
M-score based on tumor-associated markers was determined for each of the tissue pairs as previously described.
(§1) The M-score based on tumor-associated markers and tumor:stroma ratio of CD56+ cells in tumor tissue cultures under control conditions or under pressure from treatment with anticancer drug regimens was determined as described above for 3 different patients whose clinical outcome in response to the respective treatment was known.

[3] = system: gastrointestinal stromal tumor; assay: CD56+ NK cell tumor:stroma ratio by IHC in tumor tissue culture; type: cell-based, human; settings: Patient 1, gastrointestinal stromal tumor; control ratio 3
Procedure: The spatial heterogeneity of CD56+ lymphocytes (NK) in areas of tumor vs stroma in pairs of tissues (for control and treatment conditions) from each of a number of patients cultured in the tumor microenvironment platform and treated with various conventional and immuno-modulatory therapies was investigated. IHC analysis for CD56+ cells in slices of tissues under treatment and control conditions was performed, and the number of CD56+ cells in tumor and stromal regions was determined (FIG. 2A). M-score based on tumor-associated markers was determined for each of the tissue pairs as previously described. The ratio of CD56+ cells in areas of tumor cells vs areas of stroma in untreated and drug pressure conditions from the tissue pairs was calculated (FIG. 2B), and the fold change from vehicle to treatment conditions for each pair was determined and binned by M-score >25 and M-score ≤25 (FIG. 2C).
The predictive power of the change in spatial heterogeneity of CD56+NK cells in areas of tumor vs stroma under pressure from treatment with anticancer drug regimens was evaluated. […]

[4] = system: gastrointestinal stromal tumor; assay: Known clinical outcome of the patient in response to the treatment; type: in vivo, human; settings: Patient 1, gastrointestinal stromal tumor
Procedure: as §1

SMILES | Cleaved caspase 3 expression ([1]; vs vehicle control) | infiltration of NK cells (CD56) ([1]; vs vehicle-treated) | tumor cell MICA/B expression ([1]; vs vehicle-treated) | M-score [2] | M-score prediction [2] | Treatment CD56+ tumor:stroma ratio [3] | Clinical response [4]
COc1cc2ncnc(Nc3ccc(F)c(Cl)c3)c2cc1OCCCN1CCOCC1 [gefitinib] | significantly increased | increase | increase | – | – | – | –
CC[C@@]1(O)C(=O)OCc2c1cc1n(c2=O)Cc2cc3c(CN(C)C)c(O)ccc3nc2-1 [topotecan] | – | – | – | (M-score = 36) | Responder | 5 | Responder

From patent publication US20190361006A1, “METHOD OF PREDICTING CLINICAL OUTCOME OF ANTICANCER AGENTS” (MITRA RXDX, INC., priority 2017, published 2019)
